{"source": "patent US20080131500A1", "about": "“METHODS AND COMPOSITIONS FOR RAPID INACTIVATION OF PROTEINS” (The Board of Regents of The University of Texas System, priority 2006, published 2008)", "key": {"[1]": {"conditions": "cited from earlier work"}, "hirudin [2]": {"target": "T1, hirudin (Hirudo medicinalis, UniProt P01050)", "T1 sequence (P01050 whole entry, looked up)": "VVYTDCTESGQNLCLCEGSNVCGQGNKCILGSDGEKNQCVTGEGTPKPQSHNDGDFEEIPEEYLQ", "assay": "Reduction of native hirudin in 1N NaOH, 50 mM DTT with added denaturant (GdnCl or GdnSCN), HPLC analysis", "format": "biochemical", "experimental": "FIG. 3. […] N indicates native hirudin.\nDenaturant is known to destabilize the conformation of native protein and decrease the covalent stability of disulfide bonds against reduction. In addition to the optimized pH (13.5) for hirudin reduction described above, denaturant (GdnCl and GdnSCN) was included to further accelerate the rate of reduction. Native hirudin (N) was incubated at 22° C. in solutions comprising 1N NaOH, 50 mM DTT and increasing concentrations of GdnCl (0.2M-2M) or GdnSCN (0.1M-I M). […] In the presence of 1M of GdnSCN, the reduction of hirudin completes within one minute."}, "hirudin [3]": {"target": "T1, hirudin", "assay": "Reduction of native hirudin by DTT at pH 9.0, 11.0 and 13.5, HPLC analysis", "format": "biochemical", "conditions": "for rate constant of hirudin reduction: 50 mM DTT, 22° C.", "experimental": "FIG. 2. […] N-Hirudin (1 mg/ml) was reduced with 50 mM DTT at 22° C. in solutions of pH 9.0, pH 11.0 and pH 13.5. The buffers of pH 9.0 and 11.0 were prepared by the titration of 0.1N NaHC03 and 0.1N NaOH. The samples were quenched at different time points by acidification and analyzed by HPLC using the following conditions. Solvent A for HPLC was water containing 0.1% trifluoroacetic acid. Solvent B was acetonitrile/water (9:1, by volume) containing 0.086% trifluoroacetic acid. The gradient was 27% to 36% solvent B linear in 25 min. The flow rate was 0.5 ml/min. The column was Zorbax 300SB C-18 for peptides and proteins, 4.6 mm, 5 pm. Column temperature was 22° C. N indicates native hirudin.\nReduction of protein disulfide bonds by a reducing agent (such as β-mercaptoethanol, dithiothreitol or tris-carboxyethyl-phosphine) is typically performed at pH 8.0-8.5. […] Hirudin (a 3-disulfide protein) is used as an example here. Native hirudin was incubated with 20 mM, 50 mM or 100 mM of DTT at 22° C. in solutions of pH 9.0, 11.0 and 13.5 respectively. […] Thus, increase of pH from 9.0 to 13.5 accelerates the rate of reduction of hirudin at room temperature by approximately 30-fold. Similar effect of pH was also observed at DTT concentrations of 20 mM and 100 mM."}}, "note": "Like-named read-outs stand apart in the source and are kept apart here.", "data": [{"compound": "hirudin", "values": [{"measurement": "hirudin in a denatured state", "setting": "[1]; 6 M GdnCl", "result": 67, "unit": "%"}, {"measurement": "hirudin in a denatured state", "setting": "[1]; 8 M urea", "result": 14, "unit": "%"}]}, {"compound": "Cl.N=C(N)N", "note": "[GdnCl, guanidinium chloride]", "values": [{"measurement": "potency of 6M GdnCl relative to 1M GdnSCN", "setting": "hirudin [2]; 6M GdnCl versus 1M GdnSCN", "result": "about 3 fold"}, {"measurement": "potency relative to GdnSCN", "setting": "hirudin [2]; acceleration of hirudin reduction in 1N NaOH, 50 mM DTT", "result": "approximately 50%"}]}, {"compound": "N#CS.N=C(N)N", "note": "[GdnSCN, guanidine thiocyanate]", "values": [{"measurement": "time to complete reduction of hirudin", "setting": "hirudin [2]; 1M GdnSCN in 1N NaOH, 50 mM DTT, 22° C.", "result": "one"}, {"measurement": "further acceleration of the reduction of hirudin", "setting": "hirudin [2]; inclusion of 0.2M GdnSCN in 1N NaOH, 50 mM DTT, 22° C.", "result": 2.5, "unit": "fold"}, {"measurement": "further acceleration of the reduction of hirudin", "setting": "hirudin [2]; inclusion of 0.5M GdnSCN in 1N NaOH, 50 mM DTT, 22° C.", "result": 5, "unit": "fold"}]}, {"compound": "O[C@H](CS)[C@H](O)CS", "note": "(racemic) [DTT, dithiothreitol]", "values": [{"measurement": "rate constant of hirudin reduction", "setting": "hirudin [3]; pH 9.0", "result": 0.00377, "unit": "min⁻¹"}, {"measurement": "rate constant of hirudin reduction", "setting": "hirudin [3]; pH 11.0", "result": 0.0235, "unit": "min⁻¹"}, {"measurement": "acceleration of the rate of reduction of hirudin", "setting": "hirudin [3]; increase of pH from 9.0 to 13.5, room temperature", "result": "approximately 30 fold"}]}]}
